Values quoted from earlier work in patent US10695309B2 (Western New England University, priority 2017, dated 2020).

Conditions: for half-life: in vivo

SMILES	half-life	bioavailability (reported)
N[C@@H](Cc1cc(I)c(Oc2ccc(O)c(I)c2)c(I)c1)C(=O)O [Formulation T3, Liothyronine]	less than 2 days	69-99%
N[C@@H](Cc1cc(I)c(Oc2cc(I)c(O)c(I)c2)c(I)c1)C(=O)O [Formulation T4, levothyroxine]	140 to 170 h	
